Reference: publication PMC10161222, “Small Molecule Decoys of Aggregation for Elimination of Aβ-Peptide Toxicity” (ACS Chemical Neuroscience, 2023)

Target: T1, Aβ40 (Homo sapiens, UniProt P05067)
T1 construct: gene APP; 40-residue peptide cut from APP; IC50 rows: purchased mixture of HiLyte Fluor 488- and HiLyte Fluor 647-labelled human peptide (AnaSpec); ThT and TEM rows: unlabelled human recombinant peptide; self-associating, small oligomers of at most 8 monomers
Assay: FRET-FCS early aggregation, molecular brightness (counts per particle)
Type: biochemical
Settings: inhibition of oligomer formation; HiLyte 488/647-labelled Aβ40 (about 100 nM + 200 nM), 20 mM HEPES pH 7.4

T1 sequence (P05067 672-711 limits assumed): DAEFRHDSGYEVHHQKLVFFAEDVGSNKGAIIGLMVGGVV

COc1cc(-c2ccc(N=Nc3cc(S(=O)(=O)O)c4ccccc4c3O)c(OC)c2)ccc1N=Nc1cc(S(=O)(=O)O)c2ccccc2c1O [#2, NSC 9615]
IC50: 130 nM
